Assay results published in a melting point compilation (Tetko et al.).

Row | melting point [°C] | SMILES
1 | -68 | FC(F)(F)C(F)(F)C(F)(F)C(F)(F)I
2 | -76 | CC=CCCC=CC
3 | 80 | N#CC1CN(Cc2ccccc2)CN(Cc2ccccc2)C1
4 | 39.5 | CN(c1c(F)c(F)c(F)c(F)c1F)N(O)O
5 | 186 | CC(=O)N(Nc1ccccc1)c1ccc(N=Nc2ccccc2)cc1
6 | 170 | Cc1ccc(C)c2c1C(=O)N(C)C2=O
7 | 126 to 128 | CC(C)(C)OC(=O)N1CCN(c2ccc(C=O)cn2)CC1
8 | 178 | CC1(C)C2CCC1(C)C(NC(=S)Nc1ccccc1)C2NC(=S)Nc1ccccc1 (stereo not given)
9 | 78 to 80 | CC1(C)CCC(C)(C)c2cc(S(=O)(=O)Cl)ccc21
10 | 97 | CCC(C)OC(=O)C1=C2c3ncccc3ON2C(Cl)C(Cl)C1Cl (stereo not given)
11 | 94 to 98 | Cn1ccc2c(S(=O)(=O)Cl)cccc21
12 | 82 | CCOC(=O)C(C#N)=C(SCc1ccccc1)SCc1ccccc1
13 | 91 | COc1cc(N=C=S)c(C(c2ccc(C)o2)c2ccc(C)o2)cc1OC
14 | 33 to 35 | Nc1cc(C(F)(F)F)ccc1N1CCCC1
15 | 201 to 202 | Cc1c(C(=O)O)cnn1-c1ccc(Cl)cc1
16 | 98 to 100 | CC(C)(C=NO)NO
17 | 257 to 258 | O=Cc1c(-c2ccc(Cl)cc2)[nH]c2ccccc12
18 | 157 to 159 | Oc1ncc(C(F)(F)F)cc1Cl
19 | 105 | COC(=O)c1cc2ccccc2c(O)c1C(=O)OC
20 | 141 to 142 | CC(=O)Nc1cc(N)ccc1C
21 | 115 to 125 | ON=CC=Cc1ccccc1
22 | 150 | Cc1cccc(NC(=O)c2ccccc2C(=O)O)c1
23 | 161 to 162 | CC(=O)OC1=C(C)C2(OC(C)=O)CCC1C1C(=O)NC(=O)C12 (stereo not given)
24 | 287 to 289 | Oc1cc2c(cc1O)Cc1cc(O)c(O)cc1Cc1cc(O)c(O)cc1C2
25 | 163 | CC(C(=O)O)N1C(=O)c2ccccc2C1=O (stereo not given)
26 | 112 to 115 | OCc1cccc(CO)n1

Row | melting point [°C] | SMILES
27 | 145 to 148 | O=C(O)C=Cc1cccs1
28 | 79 | COc1ccc(S(=O)(=O)Cl)cc1F
29 | 17 to 19 | COC(=O)CCCCCCC(=O)O
30 | 325 | Nc1ccc2c(c1)C(=O)c1ccc(N)cc1C2=O
31 | 206 to 208 | NNC(=O)c1cc2ccccc2cc1O
32 | 177 | Cc1ccc(C(=O)O)cc1C(F)(F)F
33 | 125 to 128 | Nc1snnc1-c1ccc(C(F)(F)F)cc1
34 | 103 to 105 | NC(=O)C(F)(F)C(F)(F)C(F)(F)F
35 | 97 | Cc1cnc(N)s1
36 | 135 | O=CNC(Nc1ccc(Cl)c(Cl)c1)C(Cl)(Cl)Cl (stereo not given)
37 | 107 | CC(NC(=O)COCCN1C(=O)c2ccccc2C1=O)[P+]([O-])(Oc1ccccc1)Oc1ccccc1 (stereo not given)
38 | 175 to 177 | Cn1c(S)nnc1-c1ccc(Cl)cc1Cl
39 | 216 | C=C(C)C1CCC2(C)CCC3(C)C(CCC4C5(C)CCC(O)C(C)(C)C5CCC43C)C12 (stereo not given)
40 | 300 | Sc1nc(-c2ccccc2)c(-c2ccccc2)[nH]1
41 | 160 to 162 | O=C(NC(CO)(Cc1ccccc1)C(=O)O)c1ccccc1 (racemic)
42 | 233 to 235 | Cc1cc(C)n(N=Cc2ccccc2Cl)c(=O)c1C#N
43 | 204 | COc1cc2ccc(=O)oc2cc1O
44 | 66 | O=[N+]([O-])c1cc(N=C=S)ccc1Cl
45 | 231 | O=c1c2ccccc2c(=O)n2n1C1C=CC2C1
46 | 175 | CC1=NN(CN2CCOCC2)C(=O)/C1=N\Nc1cc(Cl)c(Cl)cc1Cl
47 | 57.5 | CCCC1COC(c2ccc(C#N)cc2)OC1 (stereo not given)
48 | 188 | C/C=C/c1nc(O)n(-c2ccccc2)n1
49 | 268 | O=C(O)c1cccc(-c2ccncc2)c1
50 | 146 | O=C(N[C@H](Cc1cccc(Br)c1)C(=O)O)OCC1c2ccccc2-c2ccccc21
51 | 190 | O=C1C(=Cc2ccccc2)SC(=S)N1CNc1cccc([N+](=O)[O-])c1
52 | 283 | Cc1nc(Nc2ncc(C(=O)Nc3c(C)cccc3Cl)s2)cc(N2CCN(CCO)CC2)n1

Row | melting point [°C] | SMILES
53 | 126 | O=C(O)COc1cccc(CBr)c1
54 | 26 | CCOC(=O)c1ccc(F)cc1
55 | 130 | C=C(NC(C)=O)C(=O)CCC(N)=O
56 | 72 to 74 | COC(=O)c1nn2ccccc2c1C(=O)OC
57 | 225 | Nc1ccc(C=Cc2nc3ccccc3[nH]2)cc1
58 | 92 to 93 | Cc1ccc2sc(Br)cc2c1
59 | 172 to 173 | c1ccc(/N=N/c2ccc(-c3ccc(NNc4ccccc4)cc3)cc2)cc1
60 | 136 to 139 | CC(C)(C)OC(=O)N[C@@H](CO)c1ccccc1
61 | 56 | O=C1C=CC2C3C=CC(C3)C12 (stereo not given)
62 | 102 | Oc1c(-c2ccccc2)cccc1-c1ccccc1
63 | 50 to 55 | Cc1cc(N)ccc1I
64 | 75 | C=CCC(CC)(CC)C(N)=O
65 | 29.4 | ClC(Cl)C(Cl)(Cl)C(Cl)(Cl)Cl
66 | 134 to 138 | O=C1OC(=O)c2ncccc21
67 | 212 | O=C1C(Cl)=C(NC(=O)C(Cl)Cl)C(=O)c2ccccc21
68 | 204 to 206 | O=[N+]([O-])c1ccc(S(=O)(=O)OCc2ccccc2OS(=O)(=O)c2ccc([N+](=O)[O-])cc2)cc1
69 | 53 | Oc1cc(F)cc(F)c1
70 | 11.6 | CC1CC(C)CC(O)C1 (stereo not given)
71 | 166 to 168 | O=C(O)C1(O)CC(O)C(O)C(O)C1 (stereo not given)
72 | -8.5 | CCOc1ccc(F)cc1
73 | 231 | Cc1cccc(Nc2ccccc2C(=O)O)c1C
74 | 103 | Oc1ccc(Br)c(O)c1
75 | 158 | c1ccc2c(c1)ccc1[nH]c3ccc4ccccc4c3c12
76 | 188 | N#C/C(=N\Nc1ccc(Cl)cc1)c1nc2ccccc2s1
77 | 192 | Cn1c(=O)c(C2=NNC(=O)C2=NNc2c(Br)cc([N+](=O)[O-])cc2[N+](=O)[O-])c(O)c2ccccc21
78 | 332 | c1ccc(-c2c3ccccc3c(-c3ccccc3)c3c(-c4ccccc4)c4ccccc4c(-c4ccccc4)c23)cc1

Row | melting point [°C] | SMILES
79 | 52 to 53 | COc1ccc(-c2noc(CCl)n2)cc1
80 | 198 | O=Cc1ccc(OCC(=O)O)cc1
81 | 69 to 71 | CN(N)C(=O)c1ccccc1N
82 | 6.5 | CCCC(=O)C(=O)O
83 | 105 to 109 | Cc1ccc(S(=O)(=O)NC(Cc2ccccc2)C(=O)CCl)cc1 (stereo not given)
84 | -40 | CCCC(O)C(CC)CO (stereo not given)
85 | 84 | Cc1sc(-c2ccncc2)nc1-c1ccccc1
86 | 61 to 63 | COC(=O)[C@H](C)NC(=O)c1ccccc1
87 | 242 | COc1ccc2c3c([nH]c2c1)C1CC2C(CC(O)C(OC)C2C(=O)O)CN1CC3 (stereo not given)
88 | 81 | CCc1ccc(C(c2ccc(C(c3ccc(CC)o3)c3ccc(CC)o3)cc2)c2ccc(CC)o2)o1
89 | -94 | C=Cc1ccco1
90 | 63 | CC(C=CC=C(C)C=CC1=C(C)CCCC1(C)C)=CC=O
91 | 120 | O=CN(O)CC(=O)O
92 | 159 to 161 | O=C(Nc1ccccc1)C(Cl)=NNc1ccccc1
93 | 300 | N#CC1=C(N)Oc2c(Br)cc(Br)cc2C1C(C#N)C#N (stereo not given)
94 | 67.5 | Nc1ccc(I)cc1
95 | 300 | Oc1nc(S)c2nc[nH]c2n1
96 | 206 | CCOC(=O)C1=C(C)NC(=O)NC1c1ccco1 (stereo not given)
97 | 209 | O=Cc1ncc[nH]1
98 | 71 | Cc1cc(C(C)(C)C)c(O)c(C(C)(C)C)c1
99 | 113 to 115 | O=C(CBr)c1ccc(-c2ccsc2)cc1
100 | 216 | N=C(N)c1ccc(Oc2ccc(C(=N)N)cc2)cc1
101 | 245 | Nc1nn2c(C(F)(F)F)cc(-c3cccs3)nc2c1/N=N/c1cccc([N+](=O)[O-])c1
102 | 330 | Nc1cccc2c(O)nnc(O)c12

Row | SMILES | melting point [°C]
103 | Nc1c([N+](=O)[O-])cc(Cl)cc1[N+](=O)[O-] | 147
104 | O=C(CCl)C(Cl)(Cl)Cl | 65
105 | O=C1CC(=O)NC(=O)N1 | 248
106 | CCOP(=S)(OCC)SCn1nnc2ccccc2c1=O | 53
107 | O=C(Cl)c1cc([N+](=O)[O-])cc([N+](=O)[O-])c1 | 74
108 | O=[N+]([O-])c1ccc(C(Cl)C(Cl)c2cccc(C(Cl)C(Cl)c3ccc([N+](=O)[O-])cc3[N+](=O)[O-])c2)c([N+](=O)[O-])c1 (stereo not given) | 90 to 108
109 | N#CC(O)C(Cl)(Cl)Cl (stereo not given) | 61
110 | COc1ccc(CC2c3cc(OC)c(OC)cc3CCN2C)cc1O (stereo not given) | 184
111 | O=C(O)c1cc([N+](=O)[O-])c(Cl)c([N+](=O)[O-])c1 | 161
112 | CCc1cccc2ccccc12 | -13.9
113 | COC1C=CC2=CCN3CCC4=C(CC(=O)OC4)C23C1 (stereo not given) | 99.5
114 | Cc1cc(N2CCNCC2)c2ccccc2n1 | 101 to 103
115 | C=CC1C2=CCOC(=O)C2=COC1OC1OC(CO)C(O)C(O)C1O (stereo not given) | 191
116 | N#Cc1cccnc1N1CCNCC1 | 76 to 78
117 | FC1(F)C(F)(F)C(F)(Cl)C1(F)Cl (stereo not given) | -15
118 | O=[N+]([O-])OC1COC2C(O[N+](=O)[O-])COC12 (stereo not given) | 61
119 | Oc1ccc2c(c1)C13CCCCC1C(C2)NCC3 (stereo not given) | 271
120 | ClCc1ccc(Cl)c(Cl)c1 | 37.5
121 | ClCc1ccc(CCl)cc1 | 100
122 | c1ccc2c(c1)ccc1ccc3ccccc3c12 | 68
123 | CC(C)(C)OOC(C)(C)CCC(C)(C)OOC(C)(C)C | 8
124 | FC(F)(F)C(F)(F)C(Cl)Cl | -94
125 | CC(=O)OC1CC[C@H]2[C@@H]3CCC4CC(=O)CC[C@]4(C)[C@H]3CC[C@]12C (stereo not given in full) | 146
